Measurements as given in PubChem BioAssay AID2060493 (Molecular Pharmacology Branch, DTP, NCI, 2025).
pIC50: −log10 of the molar value.

System: 616215-338-R-J1-PDC tumor spheroids, viability
Assay: Anticancer human tumor 616215-338-R-J1-PDC patient-derived colon adenocarcinoma cell line growth inhibition [GQUAD]
Details: spheroids with HUVEC and MSC; for pIC50: curve of first compound; for viability, T/C: stronger effect = lower value
Outline: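 Tumor cells were grown as complex spheroids with HUVEC endothelial cells and mesenchymal stem cells as stroma. G-quadruplex stabilizers were combined with targeted agents over half-log dilutions from near the clinical Cmax, or from 10 microM.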

[1] = second compound 0.0316 µM, first compound 0.0316 µM
[2] = second compound 0.0316 µM, first compound 0.1 µM
[3] = second compound 0.0316 µM, first compound 0.316 µM
[4] = second compound 0.0316 µM, first compound 1 µM
[5] = second compound 0.0316 µM, first compound 3.16 µM
[6] = second compound 0.0316 µM, first compound 10 µM
[7] = second compound 0.1 µM, first compound 0.0316 µM
[8] = second compound 0.1 µM, first compound 0.1 µM
[9] = second compound 0.1 µM, first compound 0.316 µM
[10] = second compound 0.1 µM, first compound 1 µM
[11] = second compound 0.1 µM, first compound 3.16 µM
[12] = second compound 0.1 µM, first compound 10 µM
[13] = second compound 0.316 µM, first compound 0.0316 µM
[14] = second compound 0.316 µM, first compound 0.1 µM
[15] = second compound 0.316 µM, first compound 0.316 µM
[16] = second compound 0.316 µM, first compound 1 µM
[17] = second compound 0.316 µM, first compound 3.16 µM
[18] = second compound 0.316 µM, first compound 10 µM
[19] = second compound 1 µM, first compound 0.0316 µM
[20] = second compound 1 µM, first compound 0.1 µM
[21] = second compound 1 µM, first compound 0.316 µM
[22] = second compound 1 µM, first compound 1 µM
[23] = second compound 1 µM, first compound 3.16 µM
[24] = second compound 1 µM, first compound 10 µM
[25] = second compound 3.16 µM, first compound 0.0316 µM
[26] = second compound 3.16 µM, first compound 0.1 µM
[27] = second compound 3.16 µM, first compound 0.316 µM
[28] = second compound 3.16 µM, first compound 1 µM
[29] = second compound 3.16 µM, first compound 3.16 µM
[30] = second compound 3.16 µM, first compound 10 µM
[31] = second compound 10 µM, first compound 0.0316 µM
[32] = second compound 10 µM, first compound 0.1 µM
[33] = second compound 10 µM, first compound 0.316 µM
[34] = second compound 10 µM, first compound 1 µM
[35] = second compound 10 µM, first compound 3.16 µM
[36] = second compound 10 µM, first compound 10 µM
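Also: spheroids exposed to agents for 7 days before readout.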
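For viability, T/C in this document: percent viability relative to DMSO vehicle control wells taken as 100%.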

Question: `C#Cc1c(F)ccc2cc(O)cc(-c3ncc4c(N5CC6CCC(C5)N6)nc(OCC56CCCN5CC(F)C6)nc4c3F)c12` (stereo unspecified) + Cc1cnc(CNC(=O)c2c(=O)c3ccc(N4CCCN(C)CC4)nc3n3c2sc2ccccc23)cn1 was tested. Which pIC50 (second compound 0.0316 µM) did it give?
Answer: The pIC50 was 5.35.

Question: And the pIC50 (second compound 0.1 µM)?
Answer: The pIC50 was 6.37.

Question: What about the pIC50 (second compound 0.316 µM) of the same compound?
Answer: The pIC50 was over 7.50.

Question: And the pIC50 (second compound 1 µM)?
Answer: The pIC50 was over 7.50.

Question: What about the pIC50 (second compound 3.16 µM) of the same compound?
Answer: Its pIC50 is 7.36.

Question: And the pIC50 (second compound 10 µM)?
Answer: Its pIC50 is over 7.50.

Question: What about the viability, T/C [1] of the same compound?
Answer: The viability, T/C was 98.8%.

Question: And the viability, T/C [2]?
Answer: The viability, T/C was 88.4%.

Question: And the viability, T/C [3]?
Answer: The viability, T/C was 103%.

Question: And the viability, T/C [4]?
Answer: The viability, T/C was 67.6%.

Question: And the viability, T/C [5]?
Answer: Its viability, T/C is 63.8%.

Question: What about the viability, T/C [6] of the same compound?
Answer: The viability, T/C was 27.8%.

Question: And the viability, T/C [7]?
Answer: Its viability, T/C is 64.3%.

Question: And the viability, T/C [8]?
Answer: The viability, T/C was 64.2%.

Question: And the viability, T/C [9]?
Answer: Its viability, T/C is 51.9%.

Question: And the viability, T/C [10]?
Answer: Its viability, T/C is 40.2%.

Question: What about the viability, T/C [11] of the same compound?
Answer: The viability, T/C was 28.7%.

Question: And the viability, T/C [12]?
Answer: The viability, T/C was 22.1%.

Question: And the viability, T/C [13]?
Answer: The viability, T/C was 38.8%.

Question: What about the viability, T/C [14] of the same compound?
Answer: Its viability, T/C is 40.5%.

Question: What about the viability, T/C [15] of the same compound?
Answer: Its viability, T/C is 48.3%.

Question: What about the viability, T/C [16] of the same compound?
Answer: Its viability, T/C is 40.8%.

Question: What about the viability, T/C [17] of the same compound?
Answer: The viability, T/C was 39.2%.

Question: What about the viability, T/C [18] of the same compound?
Answer: Its viability, T/C is 19%.

Question: And the viability, T/C [19]?
Answer: The viability, T/C was 34.7%.

Question: What about the viability, T/C [20] of the same compound?
Answer: The viability, T/C was 27.1%.

Question: And the viability, T/C [21]?
Answer: The viability, T/C was 40.9%.

Question: And the viability, T/C [22]?
Answer: Its viability, T/C is 19.8%.

Question: And the viability, T/C [23]?
Answer: The viability, T/C was 20.8%.

Question: What about the viability, T/C [24] of the same compound?
Answer: The viability, T/C was 20.4%.

Question: And the viability, T/C [25]?
Answer: The viability, T/C was 58.3%.

Question: What about the viability, T/C [26] of the same compound?
Answer: Its viability, T/C is 27.7%.

Question: What about the viability, T/C [27] of the same compound?
Answer: The viability, T/C was 24.1%.

Question: What about the viability, T/C [28] of the same compound?
Answer: Its viability, T/C is 15.6%.

Question: What about the viability, T/C [29] of the same compound?
Answer: Its viability, T/C is 18.8%.

Question: What about the viability, T/C [30] of the same compound?
Answer: The viability, T/C was 7.2%.

Question: What about the viability, T/C [31] of the same compound?
Answer: Its viability, T/C is 21%.

Question: What about the viability, T/C [32] of the same compound?
Answer: The viability, T/C was 18.5%.

Question: What about the viability, T/C [33] of the same compound?
Answer: Its viability, T/C is 22.3%.

Question: What about the viability, T/C [34] of the same compound?
Answer: The viability, T/C was 16.8%.

Question: What about the viability, T/C [35] of the same compound?
Answer: The viability, T/C was 14.8%.

Question: And the viability, T/C [36]?
Answer: The viability, T/C was 14.6%.

Question: `C=CCn1c(=O)c2cnc(Nc3ccc(N4CCN(C)CC4)cc3)nc2n1-c1cccc(C(C)(C)O)n1` + Cc1cnc(CNC(=O)c2c(=O)c3ccc(N4CCCN(C)CC4)nc3n3c2sc2ccccc23)cn1 was tested. Which pIC50 (second compound 0.0316 µM) did it give?
Answer: The pIC50 was 6.59.

Question: What about the pIC50 (second compound 0.1 µM) of the same compound?
Answer: Its pIC50 is 6.88.

Question: What about the pIC50 (second compound 0.316 µM) of the same compound?
Answer: Its pIC50 is over 7.50.

Question: And the pIC50 (second compound 1 µM)?
Answer: The pIC50 was over 7.50.

Question: And the pIC50 (second compound 3.16 µM)?
Answer: Its pIC50 is over 7.50.

Question: What about the pIC50 (second compound 10 µM) of the same compound?
Answer: The pIC50 was over 7.50.

Question: What about the viability, T/C [1] of the same compound?
Answer: The viability, T/C was 110%.

Question: And the viability, T/C [2]?
Answer: Its viability, T/C is 71.4%.

Question: What about the viability, T/C [3] of the same compound?
Answer: Its viability, T/C is 44.4%.

Question: What about the viability, T/C [4] of the same compound?
Answer: The viability, T/C was 32.2%.

Question: And the viability, T/C [5]?
Answer: Its viability, T/C is 23.4%.

Question: And the viability, T/C [6]?
Answer: The viability, T/C was 21.9%.

Question: What about the viability, T/C [7] of the same compound?
Answer: Its viability, T/C is 57.2%.

Question: And the viability, T/C [8]?
Answer: Its viability, T/C is 55%.

Question: And the viability, T/C [9]?
Answer: The viability, T/C was 40.1%.

Question: What about the viability, T/C [10] of the same compound?
Answer: The viability, T/C was 38.3%.

Question: And the viability, T/C [11]?
Answer: Its viability, T/C is 24.4%.

Question: And the viability, T/C [12]?
Answer: Its viability, T/C is 17.8%.

Question: And the viability, T/C [13]?
Answer: The viability, T/C was 44.1%.

Question: And the viability, T/C [14]?
Answer: Its viability, T/C is 39.4%.

Question: What about the viability, T/C [15] of the same compound?
Answer: The viability, T/C was 30%.

Question: What about the viability, T/C [16] of the same compound?
Answer: The viability, T/C was 30.2%.

Question: What about the viability, T/C [17] of the same compound?
Answer: Its viability, T/C is 27.7%.

Question: And the viability, T/C [18]?
Answer: The viability, T/C was 21%.

Question: And the viability, T/C [19]?
Answer: The viability, T/C was 29.8%.

Question: What about the viability, T/C [20] of the same compound?
Answer: Its viability, T/C is 30.8%.

Question: What about the viability, T/C [21] of the same compound?
Answer: The viability, T/C was 21%.

Question: And the viability, T/C [22]?
Answer: The viability, T/C was 21.9%.

Question: What about the viability, T/C [23] of the same compound?
Answer: The viability, T/C was 25.2%.

Question: What about the viability, T/C [24] of the same compound?
Answer: Its viability, T/C is 17.3%.

Question: What about the viability, T/C [25] of the same compound?
Answer: The viability, T/C was 31.2%.

Question: And the viability, T/C [26]?
Answer: Its viability, T/C is 31.8%.

Question: What about the viability, T/C [27] of the same compound?
Answer: Its viability, T/C is 19.8%.

Question: And the viability, T/C [28]?
Answer: Its viability, T/C is 17.5%.

Question: What about the viability, T/C [29] of the same compound?
Answer: Its viability, T/C is 12.2%.

Question: What about the viability, T/C [30] of the same compound?
Answer: The viability, T/C was 16.8%.

Question: And the viability, T/C [31]?
Answer: The viability, T/C was 25.1%.

Question: What about the viability, T/C [32] of the same compound?
Answer: Its viability, T/C is 26.2%.

Question: What about the viability, T/C [33] of the same compound?
Answer: The viability, T/C was 13.2%.

Question: What about the viability, T/C [34] of the same compound?
Answer: The viability, T/C was 15.5%.

Question: And the viability, T/C [35]?
Answer: The viability, T/C was 16.8%.

Question: And the viability, T/C [36]?
Answer: Its viability, T/C is 15.5%.

Question: What does the source list for `CC(=O)O[C@H]1C(=O)[C@@]2(C)[C@H]([C@H](OC(=O)c3ccccc3)[C@]3(O)C[C@H](OC(=O)[C@H](O)[C@@H](NC(=O)c4ccccc4)c4ccccc4)C(C)=C1C3(C)C)[C@]1(OC(C)=O)CO[C@@H]1C[C@@H]2O` + Cc1cnc(CNC(=O)c2c(=O)c3ccc(N4CCCN(C)CC4)nc3n3c2sc2ccccc23)cn1?
Answer: pIC50 (second compound 0.0316 µM): > 7.50; pIC50 (second compound 0.1 µM): > 7.50; pIC50 (second compound 0.316 µM): > 7.50; pIC50 (second compound 1 µM): > 7.50; pIC50 (second compound 3.16 µM): > 7.50; pIC50 (second compound 10 µM): > 7.50; viability, T/C [1]: 37.2%; viability, T/C [2]: 24.9%; viability, T/C [3]: 20.3%; viability, T/C [4]: 15.9%; viability, T/C [5]: 27.6%; viability, T/C [6]: 17.1%; viability, T/C [7]: 26.9%; viability, T/C [8]: 35.8%; viability, T/C [9]: 31.1%; viability, T/C [10]: 26.7%; viability, T/C [11]: 26.2%; viability, T/C [12]: 32%; viability, T/C [13]: 37%; viability, T/C [14]: 34.4%; viability, T/C [15]: 38.5%; viability, T/C [16]: 36.4%; viability, T/C [17]: 39.4%; viability, T/C [18]: 24.7%; viability, T/C [19]: 22.9%; viability, T/C [20]: 35.4%; viability, T/C [21]: 30.1%; viability, T/C [22]: 37.9%; viability, T/C [23]: 30.2%; viability, T/C [24]: 33.8%; viability, T/C [25]: 26.6%; viability, T/C [26]: 21.6%; viability, T/C [27]: 28.9%; viability, T/C [28]: 35.8%; viability, T/C [29]: 22.5%; viability, T/C [30]: 30.2%; viability, T/C [31]: 25%; viability, T/C [32]: 22.3%; viability, T/C [33]: 27.9%; viability, T/C [34]: 25%; viability, T/C [35]: 24.4%; viability, T/C [36]: 25.8%
